One series has as its system HepG2. The series can be described thus: Cytotoxicity against human HepG2 cells. The format is cell-based.
The nature of series [1]: Cytotoxicity against human Fa2N-4 cells. The series is classed as cell-based.
The test system of series [2] is Staphylococcus aureus. The series can be described thus: Antibacterial activity against Staphylococcus aureus assessed as growth inhibition. The series is classed as functional.
A further series has as its system Klebsiella pneumoniae. The series can be described thus: Antibacterial activity against Klebsiella pneumoniae clinical isolate assessed as growth inhibition. The series is classed as functional.
In series [3] the test system is Pseudomonas aeruginosa. Kind of series: Antibacterial activity against Pseudomonas aeruginosa clinical isolate assessed as growth inhibition. The series is classed as functional.
In another series the test system is Acinetobacter baumannii. The series can be described thus: Antibacterial activity against Acinetobacter baumannii clinical isolate assessed as growth inhibition. The series is classed as functional.
Series [4] has as its system Escherichia coli. Kind of series: Antibacterial activity against Escherichia coli clinical isolate assessed as growth inhibition. The format is functional.
Series [5] relates to Escherichia coli. The series can be described thus: Antibacterial activity against Escherichia coli NCTC 10418 assessed as growth inhibition. The series is classed as functional.
The test system of the next series is Bacillus subtilis. Kind of series: Antibacterial activity against Bacillus subtilis assessed as growth inhibition. The series is classed as functional.
Series [6] deals with Escherichia coli. Kind of series: Antibacterial activity against Escherichia coli SANK 70569 assessed as growth inhibition. The series is classed as functional.
Series [7] is described as follows: Ratio of MIC for Staphylococcus epidermidis PAS9001 harboring SPase S92P mutant to MIC for wild type Staphylococcus epidermidis RP62A. The format is functional.
The test system of series [8] is Staphylococcus epidermidis. The series can be described thus: Antibacterial activity against Staphylococcus epidermidis PAS9001 harboring SPase S92P mutant assessed as growth inhibition after 24 hrs by micro-broth dilution method. The format is functional. The following applies: PAS9001, 24 h. Background: In broth dilution the organism is exposed to a series of concentrations in liquid medium.

The test system of series [9] is Pseudomonas aeruginosa. Kind of series: Antibacterial activity against Pseudomonas aeruginosa PAS2006 harboring SPase P84S mutant assessed as growth inhibition after 24 hrs by micro-broth dilution method. The series is classed as functional. The settings on record: PAS2006, 24 h.
Series [10] concerns Escherichia coli. The series can be described thus: Antibacterial activity against Escherichia coli PAS0232 harboring SPase P84S mutant assessed as growth inhibition after 24 hrs by micro-broth dilution method. The settings on record: PAS0232, 24 h. The series is classed as functional.
Series [11] relates to Staphylococcus aureus. The series can be described thus: Antibacterial activity against Staphylococcus aureus PAS8001 harboring SPase P29S mutant assessed as growth inhibition after 24 hrs by micro-broth dilution method. The series is classed as functional. The settings on record: PAS8001, 24 h.
In series [12] the test system is Staphylococcus epidermidis. The series can be described thus: Antibacterial activity against wild type Staphylococcus epidermidis RP62A assessed as growth inhibition after 24 hrs by micro-broth dilution method. The format is functional.
Series [13] deals with Pseudomonas aeruginosa. Kind of series: Bactericidal activity against Pseudomonas aeruginosa PA14 after 16 to 20 hrs by agar diffusion assay. The series is classed as functional.
In series [14] the test system is Pseudomonas aeruginosa. Kind of series: Antibacterial activity against Pseudomonas aeruginosa PA14 assessed as growth inhibition after 16 to 20 hrs by agar diffusion assay. The format is functional, organism-based. (Agar diffusion results depend on both activity and mobility in agar.)
The subject of series [15] is Staphylococcus aureus. The series can be described thus: Antibacterial activity against 10 clinical isolates of methicillin resistant Staphylococcus aureus […] assessed as growth inhibition by broth dilution method. The format is functional.
Series [16] concerns Pseudomonas aeruginosa. Kind of series: Antibacterial activity against Pseudomonas aeruginosa ATCC 27853 infected in sc dosed mouse septisemia model measured at 1 to 5 hrs. The series is classed as functional. The settings on record: ATCC 27853, sc.
In series [17] the test system is Pseudomonas aeruginosa. The series can be described thus: Antibacterial activity against Pseudomonas aeruginosa ATCC 27853 assessed as growth inhibition by microdilution method. The format is functional.
The test system of series [18] is Escherichia coli. Kind of series: Antibacterial activity against Escherichia coli MB5746 harboring envA1/TolC efflux pump mutant assessed as growth inhibition after 20 hrs by agar dilution method. The series is classed as functional. The settings on record: MB5746, 20 h. A general note: Agar dilution tests growth on a series of plates holding different concentrations.

Series [19] has as its system Escherichia coli. Kind of series: Antibacterial activity against Escherichia coli MB2884 assessed as growth inhibition after 20 hrs by agar dilution method. The series is classed as functional. The settings on record: MB2884, 20 h.
For series [20], the system named is Staphylococcus aureus. The series can be described thus: Antibacterial activity against methicillin resistant Staphylococcus aureus COL MB5393 assessed as growth inhibition after 20 hrs by agar dilution method. The format is functional. The following applies: COL MB5393, 20 h.
In series [21] the test system is Staphylococcus aureus. Kind of series: Antibacterial activity against methicillin sensitive Staphylococcus aureus MB2865 assessed as growth inhibition after 20 hrs by agar dilution method. The format is functional. The following applies: MB2865, 20 h.
Series [22] deals with Staphylococcus aureus. Kind of series: Antibacterial activity against 24 clinical isolates of methicillin resistant Staphylococcus aureus […] assessed as growth inhibition by broth dilution method. The series is classed as functional.

We go through twelve compounds from ChEMBL document CHEMBL3102772, “New natural products as new leads for antibacterial drug discovery” (Bioorg Med Chem Lett, 2014).

The term MIC denotes the least concentration at which growth counts as inhibited. A word on the MBC: it is the lowest tested concentration that kills the bacteria rather than only halting them. The low end stands for more potent killing, the high end for less potent killing. Usually IC50 stands for the point on the concentration scale where inhibition reaches its midpoint. In general, ED50 refers to the dose at which the effect has come halfway, by size or by number of responders. Lower therefore signals greater potency.

SMILES strings stand for the structures. Converted amounts (≈) assume the structure as drawn. Starred links: 1 amine or outer side, 2 acyl side, 3 side chain; linkers in the order of their positions; H or OH if unused. Positions of bridges follow the written chain, without caps; N, C: chain ends. Non-standard residues stand in square brackets, D forms with d. Residues, ends and D or L forms follow the SMILES beside them. X1 = CC(C)=CCc1ccc(Cl)c2[nH]cc(CC(N[*:1])C(=O)[*:2])c12; Trp(7-Cl) = N[CH](Cc1c[nH]c2c(Cl)cccc12)C(=O)O; Malonyl = O=C(CC(=O)[*:2])[*:1]; Cya = N[CH](CS(=O)(=O)O)C(=O)O; Dab = NCC[C@H](N)C(=O)O A value given as a limit tells only on which side of the number the result lay.

On to `[C-]#[N+]C(=C)[C@@](Cc1ccc(OC)cc1)([N+]#[C-])C1C[C@@H](OC(=O)CO)CC[C@@H]1O` (stereo partly drawn), for which the Activity (in the series on HepG2; in series [1]) was above 512 µg/mL each time. Also, the MIC in the series with Staphylococcus aureus [2] is above 128 µg/mL; in the series on Klebsiella pneumoniae, 0.256 µg/mL (≈ 0.667 µM); with Pseudomonas aeruginosa [3], 0.256 µg/mL (≈ 0.667 µM); with Acinetobacter baumannii, 0.256 µg/mL (≈ 0.667 µM); in the series on Escherichia coli [4] it was 0.256 µg/mL (≈ 0.667 µM).
In the case of `CCC[C@@H]1OC(=O)[C@@H](C)C[C@H](C)CCCCC(=O)CCC[C@@H](CC)/C=C/C=C(\COC)CC[C@@H](O)[C@@H](O)C[C@H](O)CNC1=O`, the MIC in the series with Escherichia coli [5] is 6.25 µg/mL (≈ 10 µM).
For `C/C(=C\c1ccc(N(C)C)cc1)C(=O)N[C@@H]1[C@H](O)[C@@H](O)[C@H]2OC(OC(C(=O)O)C(O)CO)O[C@H]2[C@@H]1N(C)C` (stereo partly drawn), the minimal inhibitory concentration (MIC) in the series with Bacillus subtilis amounted to 70 µg/mL (≈ 130 µM).
As for `CCCCCC[C@H]1OC(=O)CNC(=O)[C@H]([C@H](C)O)NC(=O)[C@H](CO)NC(=O)[C@H]([C@H](C)CC)NC(=O)[C@H](CC(C)C)N(C)C(=O)[C@@H]1C`, the minimal inhibitory concentration (MIC) with Escherichia coli [6] came out at 12.5 µg/mL (≈ 19.1 µM).
As for `CCCCCCCCCCCCCCCC(=O)N(C)[C@H](CO)C(=O)N[C@H](C)C(=O)NCC(=O)N(C)[C@@H]1C(=O)N[C@@H](C)C(=O)N[C@H](C(=O)O)Cc2ccc(O)c(c2)-c2cc1ccc2O` [ARYLOMYCIN C16], the Ratio in series [7] came to 32. For the same compound, the MIC was determined as 8 µg/mL (≈ 9.08 µM) in [8]; 8 µg/mL (≈ 9.08 µM) in the series with Pseudomonas aeruginosa [9]; 4 µg/mL (≈ 4.54 µM) in the series on Escherichia coli [10]; 2 µg/mL (≈ 2.27 µM) in the series on Staphylococcus aureus [11]; 0.25 µg/mL (≈ 0.284 µM) in series [12].
For `CCC[C@@H]1OC(=O)[C@@H](C)C[C@H](C)CCCCC(=O)CCC[C@@H](CC)CC/C=C(\COC)CC[C@@H](O)[C@@H](O)C[C@H](O)CNC1=O`, in the series with Escherichia coli [5], the MIC turned out to be 3.12 µg/mL (≈ 4.98 µM).
For `CCCCCCC(CCCCCC(O)C(N)=O)OC(=O)C1CC=CN1C(=O)c1ccccc1O` (stereo not drawn), in the series on Pseudomonas aeruginosa [13], the MBC was 100 µg/mL (≈ 211 µM). Besides, the IC50 with Pseudomonas aeruginosa [14] was determined as 0.16 µg/mL (≈ 0.337 µM).
`CCCC(C)/C=C(/C)C(=O)OC(CCCCCCC/C=C/C(=O)NCCC(=O)NC(CS(=O)(=O)O)C(=O)N(C)C1C(=O)NC(C)C(=O)NC(C(=O)O)Cc2ccc(OS(=O)(=O)O)c(c2)-c2cc1cc(OS(=O)(=O)O)c2O[C@H]1O[C@H](C)[C@@H](O)[C@H](O)[C@@H]1O)CCC(C)C` (stereo partly drawn): in the series on Staphylococcus aureus [15], the MIC worked out at 0.5 µg/mL (≈ 0.371 µM).
With `CC[C@H](C)[C@@H]1NC(=O)[C@H](Cc2c[nH]c3ccccc23)NC(=O)[C@H]([C@@H](C)O)NC(=O)[C@@H]2CCCN2C(=O)[C@@H]2CCCN2C(=O)[C@H](CCN)NC(=O)[C@H](C)NC(=O)[C@H](CCN)NC(=O)[C@H](CCN)NC(=O)[C@H](Cc2c[nH]c3ccccc23)NC(=O)[C@H](CCN)NC(=O)[C@H](CCN)NC(=O)[C@H](CCCCN)NC(=O)[C@H](CCN)NC1=O` (cyclo(A[Dab]PPTWI[Dab]K[Dab][Dab]W[Dab][Dab])), the ED50 in the series on Pseudomonas aeruginosa [16] is 0.25 mg/kg. In addition, in the series on Pseudomonas aeruginosa [17], the MIC was determined as 0.008 µg/mL.
For `C=C1CC[C@@H](O[C@H]2C[C@@](O)([C@H](C)NC(=O)c3[nH]c(C)c(Cl)c3Cl)[C@H](O)[C@@H](C)O2)[C@@H]2C=C[C@H](C)C(/C(O)=C3\C(=O)[C@H](C(C)C)N([C@H]4O[C@H](C)[C@H](OC(N)=O)[C@H](OC(C)=O)[C@@H]4OC)C3=O)[C@@H]12` (stereo partly drawn) [KIBDELOMYCIN], the MIC in the series with Escherichia coli [18] is 32 µg/mL (≈ 34 µM); in the series with Escherichia coli [19], above 64 µg/mL; in the series on Staphylococcus aureus [20], 0.5 µg/mL (≈ 0.532 µM); with Staphylococcus aureus [21] it was 2 µg/mL (≈ 2.13 µM).
Consider `CC(C)=CCc1ccc(Cl)c2[nH]cc(CC3NC(=O)C(Cc4c[nH]c5c(Cl)cccc45)NC(=O)C4CCCN4C(=O)C(CS(=O)(=O)O)NC(=O)C(NC(=O)C(NC(=O)C(C)NC(=O)CC(=O)O)C(C)C)COC(=O)C(CO)NC(=O)C(CC(C)C)NC(=O)C(C(C)C)NC3=O)c12` (stereo not drawn) (Malonyl-AVS[Cya]P[Trp(7-Cl)][X1]VLS; ester 3-C; configuration not given here), for which the MIC in the series on Staphylococcus aureus [22] was 16 µg/mL (≈ 11.4 µM).
Consider `CCCCCCCCCC[C@H]1OC(=O)CNC(=O)[C@H]([C@H](C)O)NC(=O)[C@H](CO)NC(=O)[C@H]([C@H](C)CC)NC(=O)[C@H](CC(C)C)N(C)C(=O)[C@@H]1C`, for which the minimal inhibitory concentration (MIC) in the series on Escherichia coli [6] amounted to 1.56 µg/mL (≈ 2.19 µM).
